Experiment: xn = mol fraction of the nth substance listed

ClC(Cl)(Cl)Cl + CCCCOCCO
298.15 K, 101.3 kPa
Settings | viscosity [mPa·s]
x2 = 0.0054 | 0.913
x2 = 0.0106 | 0.919
x2 = 0.0262 | 0.918
x2 = 0.0778 | 0.968
x2 = 0.1296 | 1.035
x2 = 0.1914 | 1.125
x2 = 0.2889 | 1.283
x2 = 0.3826 | 1.47
x2 = 0.4809 | 1.687
x2 = 0.5388 | 1.81
x2 = 0.5933 | 1.935
x2 = 0.6963 | 2.162
x2 = 0.7923 | 2.385
x2 = 0.8841 | 2.589
x2 = 0.9631 | 2.759

CCCOC(C)=O + CCCO
viscosity [mPa·s], 101.3 kPa
Settings | x2 = 0.3042 | x2 = 0.5372 | x2 = 0.7245 | x2 = 0.8572
298.15 K | 0.592 | 0.755 | 0.987 | 1.305
308.15 K | 0.53 | 0.653 | 0.829 | 1.066

ClC(Cl)(Cl)Cl + CCCO
101 kPa
Settings | viscosity [mPa·s]
298.15 K, x2 = 0.0685 | 0.89
298.15 K, x2 = 0.1 | 0.903
298.15 K, x2 = 0.1294 | 0.909
298.15 K, x2 = 0.2085 | 0.962
298.15 K, x2 = 0.22 | 0.946
298.15 K, x2 = 0.2859 | 1.02
298.15 K, x2 = 0.31 | 1.012
298.15 K, x2 = 0.39 | 1.089
298.15 K, x2 = 0.3964 | 1.113
298.15 K, x2 = 0.5849 | 1.317
298.15 K, x2 = 0.63 | 1.409
298.15 K, x2 = 0.72 | 1.554
298.15 K, x2 = 0.79 | 1.667
298.15 K, x2 = 0.8446 | 1.724
298.15 K, x2 = 0.8705 | 1.769
298.15 K, x2 = 0.8955 | 1.808
298.15 K, x2 = 0.91 | 1.88
298.15 K, x2 = 0.9511 | 1.877
303.15 K, x2 = 0.0615 | 0.8319
303.15 K, x2 = 0.0651 | 0.8324
303.15 K, x2 = 0.1059 | 0.8333
303.15 K, x2 = 0.2377 | 0.8752
303.15 K, x2 = 0.3576 | 0.9546
303.15 K, x2 = 0.4503 | 1.041
303.15 K, x2 = 0.5592 | 1.163
303.15 K, x2 = 0.6985 | 1.339
303.15 K, x2 = 0.7899 | 1.461
303.15 K, x2 = 0.8376 | 1.524
303.15 K, x2 = 0.8976 | 1.603
303.15 K, x2 = 0.9626 | 1.682
303.15 K, x2 = 0.9633 | 1.684
308.15 K, x2 = 0.0685 | 0.775
308.15 K, x2 = 0.1294 | 0.785
308.15 K, x2 = 0.2085 | 0.817
308.15 K, x2 = 0.2859 | 0.849
308.15 K, x2 = 0.3964 | 0.905
308.15 K, x2 = 0.5849 | 1.071
308.15 K, x2 = 0.8446 | 1.383
308.15 K, x2 = 0.8705 | 1.402
308.15 K, x2 = 0.8955 | 1.435
308.15 K, x2 = 0.9511 | 1.487
318.15 K, x2 = 0.0685 | 0.676
318.15 K, x2 = 0.1294 | 0.686
318.15 K, x2 = 0.2085 | 0.702
318.15 K, x2 = 0.2859 | 0.735
318.15 K, x2 = 0.3964 | 0.772
318.15 K, x2 = 0.5849 | 0.882
318.15 K, x2 = 0.8446 | 1.109
318.15 K, x2 = 0.8705 | 1.128
318.15 K, x2 = 0.8955 | 1.152
318.15 K, x2 = 0.9511 | 1.196

ClC(Cl)(Cl)Cl + CCO
Settings | viscosity [mPa·s]
298.15 K, 101 kPa, x2 = 0.0247 | 0.89
298.15 K, 101 kPa, x2 = 0.0475 | 0.884
298.15 K, 101 kPa, x2 = 0.0769 | 0.883
298.15 K, 101 kPa, x2 = 0.1 | 0.872
298.15 K, 101 kPa, x2 = 0.1289 | 0.874
298.15 K, 101 kPa, x2 = 0.2438 | 0.886
298.15 K, 101 kPa, x2 = 0.27 | 0.886
298.15 K, 101 kPa, x2 = 0.37 | 0.915
298.15 K, 101 kPa, x2 = 0.3813 | 0.931
298.15 K, 101 kPa, x2 = 0.45 | 0.947
298.15 K, 101 kPa, x2 = 0.5136 | 0.974
298.15 K, 101 kPa, x2 = 0.645 | 1.023
298.15 K, 101 kPa, x2 = 0.69 | 1.037
298.15 K, 101 kPa, x2 = 0.768 | 1.068
298.15 K, 101 kPa, x2 = 0.77 | 1.064
298.15 K, 101 kPa, x2 = 0.83 | 1.079
298.15 K, 101 kPa, x2 = 0.8966 | 1.108
298.15 K, 101 kPa, x2 = 0.93 | 1.091
298.15 K, 101 kPa, x2 = 0.9687 | 1.1
303 K, 101.33 kPa, x2 = 0.37 | 0.8302
303 K, 101.33 kPa, x2 = 0.45 | 0.8567
303 K, 101.33 kPa, x2 = 0.53 | 0.8727
303 K, 101.33 kPa, x2 = 0.64 | 0.9314
303 K, 101.33 kPa, x2 = 0.69 | 0.9449
303 K, 101.33 kPa, x2 = 0.73 | 0.9479
303 K, 101.33 kPa, x2 = 0.83 | 0.9806
303 K, 101.33 kPa, x2 = 0.89 | 0.9857
303 K, 101.33 kPa, x2 = 0.91 | 1.007
303 K, 101.33 kPa, x2 = 0.93 | 0.9995
303 K, 101.33 kPa, x2 = 0.95 | 1.008
303.15 K, 101 kPa, x2 = 0.0565 | 0.8183
303.15 K, 101 kPa, x2 = 0.0932 | 0.8112
303.15 K, 101 kPa, x2 = 0.1798 | 0.8093
303.15 K, 101 kPa, x2 = 0.312 | 0.8313
303.15 K, 101 kPa, x2 = 0.4579 | 0.8759
303.15 K, 101 kPa, x2 = 0.5273 | 0.8994
303.15 K, 101 kPa, x2 = 0.6028 | 0.924
303.15 K, 101 kPa, x2 = 0.689 | 0.949
303.15 K, 101 kPa, x2 = 0.7868 | 0.974
303.15 K, 101 kPa, x2 = 0.867 | 0.9867
303.15 K, 101 kPa, x2 = 0.9134 | 0.9917
303.15 K, 101 kPa, x2 = 0.9566 | 0.9933
303.15 K, 101 kPa, x2 = 0.9724 | 0.9934
308.15 K, 101 kPa, x2 = 0.0247 | 0.773
308.15 K, 101 kPa, x2 = 0.0475 | 0.768
308.15 K, 101 kPa, x2 = 0.0769 | 0.762
308.15 K, 101 kPa, x2 = 0.1289 | 0.759
308.15 K, 101 kPa, x2 = 0.2438 | 0.768
308.15 K, 101 kPa, x2 = 0.3813 | 0.783
308.15 K, 101 kPa, x2 = 0.5136 | 0.825
308.15 K, 101 kPa, x2 = 0.645 | 0.857
308.15 K, 101 kPa, x2 = 0.768 | 0.891
308.15 K, 101 kPa, x2 = 0.8966 | 0.923
308.15 K, 101 kPa, x2 = 0.9687 | 0.914
313 K, 101.33 kPa, x2 = 0.37 | 0.7056
313 K, 101.33 kPa, x2 = 0.45 | 0.7242
313 K, 101.33 kPa, x2 = 0.53 | 0.7385
313 K, 101.33 kPa, x2 = 0.64 | 0.7801
313 K, 101.33 kPa, x2 = 0.69 | 0.7889
313 K, 101.33 kPa, x2 = 0.73 | 0.7949
313 K, 101.33 kPa, x2 = 0.83 | 0.8127
313 K, 101.33 kPa, x2 = 0.89 | 0.817
313 K, 101.33 kPa, x2 = 0.91 | 0.8276
313 K, 101.33 kPa, x2 = 0.93 | 0.8251
313 K, 101.33 kPa, x2 = 0.95 | 0.8358
318.15 K, 101 kPa, x2 = 0.0247 | 0.678
318.15 K, 101 kPa, x2 = 0.0475 | 0.676
318.15 K, 101 kPa, x2 = 0.0769 | 0.671
318.15 K, 101 kPa, x2 = 0.1289 | 0.664
318.15 K, 101 kPa, x2 = 0.2438 | 0.672
318.15 K, 101 kPa, x2 = 0.3813 | 0.672
318.15 K, 101 kPa, x2 = 0.5136 | 0.698
318.15 K, 101 kPa, x2 = 0.645 | 0.72
318.15 K, 101 kPa, x2 = 0.768 | 0.744
318.15 K, 101 kPa, x2 = 0.8966 | 0.773
318.15 K, 101 kPa, x2 = 0.9687 | 0.769
323 K, 101.33 kPa, x2 = 0.37 | 0.6106
323 K, 101.33 kPa, x2 = 0.45 | 0.6123
323 K, 101.33 kPa, x2 = 0.53 | 0.6316
323 K, 101.33 kPa, x2 = 0.64 | 0.6595
323 K, 101.33 kPa, x2 = 0.69 | 0.6672
323 K, 101.33 kPa, x2 = 0.73 | 0.6698
323 K, 101.33 kPa, x2 = 0.83 | 0.6807
323 K, 101.33 kPa, x2 = 0.89 | 0.6862
323 K, 101.33 kPa, x2 = 0.91 | 0.6947
323 K, 101.33 kPa, x2 = 0.93 | 0.6952
323 K, 101.33 kPa, x2 = 0.95 | 0.6993
